In the CheMixHub viscosity set:
Several values for one entry are separate records, joined by “and”; a condition that tells them apart may be missing. Identical values can stand only once.

CCCCCCCCCCCCn1cc[n+](C)c1.O=S(=O)([N-]S(=O)(=O)C(F)(F)F)C(F)(F)F
100 kPa
Conditions	viscosity
298 K	135.9 mPa·s and 150.3 mPa·s
303 K	102.5 mPa·s and 114.4 mPa·s
308 K	79.3 mPa·s and 88.7 mPa·s
313 K	62.31 mPa·s and 70.09 mPa·s
318 K	49.81 mPa·s and 56.18 mPa·s
323 K	39.98 mPa·s and 45.26 mPa·s

CCC(=O)O.CCC(=O)[O-].CC[NH+](CC)CCO
101 kPa
Conditions	viscosity [mPa·s]
293.15 K	88.32
298.15 K	66.16
303.15 K	50.6
308.15 K	39.4
313.15 K	31.21
318.15 K	25.1
323.15 K	20.46

CCCOCC(C)OCC(C)O (stereo unspecified)
101.33 kPa
Conditions	viscosity [mPa·s]
298.15 K	4.001
308.15 K	2.986
318.15 K	2.271

CN(C)CCCN
viscosity
Conditions	293.15 K	303.15 K	308.15 K	313.15 K	318.15 K	323.15 K
100 kPa	1.079 mPa·s	0.8997 mPa·s	–	0.7611 mPa·s	–	0.6553 mPa·s
101 kPa	–	0.941 mPa·s	0.8773 mPa·s and 0.862 mPa·s	0.8098 mPa·s and 0.793 mPa·s	0.7531 mPa·s and 0.731 mPa·s	0.7013 mPa·s and 0.678 mPa·s

CCOP(OCC)OCC
Conditions	viscosity [mPa·s]
298.15 K, 101 kPa	0.698

CC(=O)O.OCCNCCO
viscosity [mPa·s]
Conditions	293.15 K	298.15 K	303.15 K	308.15 K	313.15 K	318.15 K	323.15 K
100 kPa	5750	–	2248	–	1003	–	491.7
101.3 kPa	2115	1363	905.4	617.3	431.4	308.3	225

CCOP(=O)([O-])OCC.CC[N+]1(C)CCCC1
100 kPa
Conditions	viscosity [mPa·s]
293.15 K	440.8
298.15 K	306.8
303.15 K	220
308.15 K	164.1
313.15 K	121.4
318.15 K	92.72
323.15 K	72.98

CCCCCCCC/C=C\CCCCCCCC(=O)OCC
viscosity
Conditions	293.15 K	298.15 K	303.15 K	308.15 K	313.15 K	318.15 K	323.15 K
100 kPa	6.414 mPa·s	5.653 mPa·s	4.986 mPa·s	4.435 mPa·s and 4.424 mPa·s	3.919 mPa·s	3.554 mPa·s	3.214 mPa·s
101 kPa	6.413 mPa·s	5.653 mPa·s	4.986 mPa·s	4.424 mPa·s	3.918 mPa·s	3.554 mPa·s	3.214 mPa·s

CCCC(=O)[O-].[NH3+]CCO
101 kPa
Conditions	viscosity [mPa·s]
293.15 K	3077
298.15 K	2071
303.15 K	1434
308.15 K	1011
313.15 K	733.5
318.15 K	539.6
323.15 K	397.8

CCCCn1cc[n+](C)c1C.O=S(=O)([N-]S(=O)(=O)C(F)(F)F)C(F)(F)F
101.3 kPa
Conditions	viscosity [mPa·s]
293.15 K	132.9
303.15 K	78.56
308.15 K	62.2
313.15 K	50.15
318.15 K	41.04
323.15 K	34.04
